Laboratory results published in patent US6849593B1, “Bifidogenic peptides” (Pharis Biotec GmbH, priority 1997, dated 2005).

Test system: Bifidobacterium bifidum ATCC 29521
Assay: bifidogenic activity: growth test with bifidobacteria in combination with a growth test with E. coli
Format: cell-based
Settings: growth of Bifidobacterium bifidum (50% Elliker broth, anaerobic, 37° C., 16 hours) relative to growth of E. coli K12 (3 g/l tryptic soy broth, 16 hours); desalted HPLC fractions from pepsin-treated human milk
Procedure: This object is achieved by peptides having the features of claim 1. […]
For each assay, cultures of E. coli K12 were freshly inoculated in tryptic soy broth (Sigma, Deisenhofen, Germany, order No. T8907) (Difco Manual, 10th ed., p. 1027). […] The photometric absorption of the inoculum was 0.05, measured at 500 nm. The growth of the bacteria under the influence of the peptides was also photometrically determined in an ELISA reader after 16 hours and manually determined by microscopy.
For each assay, cultures of Bifidobacterium bifidum ATCC 29521 were freshly inoculated in Elliker broth (Difco, Detroit, USA) (tryptone 20 g, yeast extract 5 g, gelatin 2.5 g, dextrose 5 g, lactose 5 g, saccharose 5 g, sodium chloride 4 g, sodium acetate 1.5 g, ascorbic acid 0.5 g). […] The photometric absorption of the inoculum was 0.05, measured at 550 nm. The growth of the bacteria under the influence of the peptides was also photometrically determined in an ELISA reader after 16 hours and manually determined by microscopy. […]

Sequence | bifidogenic activity
GRRRRSVQWCAVSQPEATKCFQWQRNMRKVRGPPVSCIKRDSPICCIQA (GRRRSVQWCAVSQPEATKCFQWQRNMRKVRGPPVSCIKRDSPIQCIQA) [neutrophile lactoferrin-20-67, bifidogenic component of fraction 10, peptide isolated from pepsin-treated human milk] | bifidogenic
YQRRPAIAINNPYVPRTYYANPAVVRPHAQIPQRQYLPNSHPPTVVRRPLPSF (YQRRPAIAINNPYVPRTYYANPAVVRPHAQIPQRQYLPNSHPPTVVRRPNLHPSF) [casein K-63-117, pure bifidogenic component of fraction 9, peptide isolated from pepsin-treated human milk] | bifidogenic
